Measured values: ChEMBL document CHEMBL1143607, “Pyridinium-1-yl bisphosphonates are potent inhibitors of farnesyl diphosphate synthase and bone resorption” (J Med Chem, 2005)

Experiments:
[1] = Effective concentration against human Gamma delta T cells; assay type: functional, cell-based; conditions: t-cell
Dictyostelium discoideum = assay: Inhibitory concentration against Dictyostelium discoideum cell growth; assay type: functional, organism-based, Fungi
Mus musculus = species on record: Mus musculus; assay: In vitro inhibitory concentration against bone resorption in 17 day old fetal mouse metatarsals; assay type: functional

Compound | EC50 [1] | IC50 (Dictyostelium discoideum) | IC50 (Mus musculus)
O=P([O-])(O)C(O)(C[n+]1ccc(Cc2ccccc2)cc1)P(=O)(O)O (stereo unspecified) | 150 µM | 12 µM | 
O=P([O-])(O)C(O)(C[n+]1ccccc1)P(=O)(O)O (stereo unspecified) | 4.8 µM | 2.1 µM | 0.67 µM
CCc1ccc[n+](CC(O)(P(=O)([O-])O)P(=O)(O)O)c1 (stereo unspecified) | 4.4 µM | 5.6 µM | 
O=P([O-])(O)C(O)(C[n+]1cccc(-c2ccccc2)c1)P(=O)(O)O (stereo unspecified) | 4.1 µM | 3.8 µM | 0.41 µM
Cc1cccc(Cc2ccc[n+](CC(O)(P(=O)([O-])O)P(=O)(O)O)c2)c1 (stereo unspecified) | 44 µM | 9.2 µM | 
O=P([O-])(O)C(O)(C[n+]1cccc2cc(Cl)ccc21)P(=O)(O)O (stereo unspecified) | 56 µM | 72 µM | 
Nc1c[n+](CC(P(=O)([O-])O)P(=O)(O)O)ccn1 (stereo unspecified) |  |  | 0.22 µM
Cc1ccc[n+](CC(O)(P(=O)([O-])O)P(=O)(O)O)c1 (stereo unspecified) | 4.5 µM | 1.5 µM | 0.22 µM
O=P([O-])(O)C(O)(C[n+]1cccc(-c2ccc(O)cc2)c1)P(=O)(O)O (stereo unspecified) | 2.5 µM | 2.9 µM | 
O=P([O-])(O)C(O)(C[n+]1cccc(F)c1)P(=O)(O)O (stereo unspecified) | 2.7 µM | 4.6 µM | 0.075 µM
COc1ccc[n+](CC(O)(P(=O)([O-])O)P(=O)(O)O)c1 (stereo unspecified) | 9.3 µM | 6 µM | 0.37 µM
O=P([O-])(O)C(O)(C[n+]1cccc(Cc2ccccc2)c1)P(=O)(O)O (stereo unspecified) | 91 µM | 11 µM | 
CCCCc1ccc[n+](CC(O)(P(=O)([O-])O)P(=O)(O)O)c1 (stereo unspecified) | 4.3 µM | 2.9 µM | 
O=P([O-])(O)C(O)(C[n+]1ccc2ccccc2c1)P(=O)(O)O (stereo unspecified) | 30 µM | 20 µM | 
NCCCC(O)(P(=O)(O)O)P(=O)(O)O [ALENDRONIC ACID] | 32 µM |  | 0.29 µM
NCCC(O)(P(=O)(O)O)P(=O)(O)O [PAMIDRONIC ACID] | 43 µM |  | 1.6 µM
O=P(O)(O)C(O)(Cc1cccnc1)P(=O)(O)O [RISEDRONIC ACID] | 5 µM |  | 0.3 µM
O=P(O)(O)C(O)(Cn1ccnc1)P(=O)(O)O [ZOLEDRONIC ACID] | 5.4 µM | 2.9 µM | 0.034 µM
